From ChEMBL document CHEMBL1201862, “PubChem BioAssay data set” (2004) come the findings set out here.

Experiment in all cases: growth of human tumour cells (NCI), 48 h
Assay [1] has as its system 786-0.
Assay [2] deals with EKVX.
Assay [3] has as its system HCC 2998.
Assay [4] deals with HCT-15.
Assay [5] deals with HL-60.
Assay [6] relates to HOP-62.
In assay [7] the test system is LOX IMVI.
The subject of assay [8] is OVCAR-4.
In assay [9] the test system is OVCAR-5.
Assay [10] has as its system PC-3.
Assay [11] relates to RXF 393.
Assay [12] deals with SF-268.
Assay [13] relates to SF-295.
The subject of assay [14] is SK-MEL-5.
The subject of assay [15] is SK-OV-3.
Assay [16] relates to SNB-75.
For assay [17], the system named is T47D.
In assay [18] the test system is U-251.
Assay [19] has as its system UACC-62.
Assay [20] relates to SR.

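How tested: cells in 96-well plates exposed to compound for 48 hours at five concentrations. GI50 = concentration required for 50% inhibition of growth.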 Active and inactive are the calls of the source. Cut-off read from the data, not from the text of the source: active = GI50 up to about 1.1 µM and inactive = higher.

For the compound `COC(=O)CC(c1ccccc1)C(C#N)(OP1(=O)OC(c2ccccc2)C(C)N1C)c1ccccc1` (configuration not stated), the GI50 in assay [1] was 83.4 µM (inactive); in assay [2], 77.1 µM (inactive); in assay [3], > 100 µM (inactive); in assay [4] it was 41.2 µM; in assay [5], 26.2 µM (inactive); in assay [6], > 100 µM (inactive). For the same compound, the GI50 was 59.3 µM (inactive) in assay [7]; 33.3 µM (inactive) in assay [8]; > 100 µM (inactive) in assay [9]; 35.8 µM (inactive) in assay [10]; > 100 µM (inactive) in [11]; > 100 µM (inactive) in assay [12]. Moreover, the GI50 in assay [13] is 71.6 µM (inactive); in [14], 19 µM (inactive); in assay [15], > 100 µM (inactive); in [16] it was > 100 µM (inactive); in assay [17] it was 68.2 µM (inactive); in [18], 54.1 µM (inactive). Moreover, the GI50 in assay [19] was 47.5 µM (inactive).
As for `CCCNC(=O)Cn1c2c(c3ccccc31)CCCC2`, the GI50 in assay [1] is > 100 µM (inactive); in assay [2], 56.6 µM (inactive); in [3] it was 75.5 µM (inactive); in assay [4], 45.2 µM; in assay [5], 29.6 µM (inactive); in [6], 78 µM (inactive). Also, the GI50 in assay [7] was > 100 µM (inactive); in assay [8], 45.8 µM (inactive); in [9], > 100 µM (inactive); in assay [10], 63.8 µM (inactive); in assay [12] it was > 100 µM (inactive); in assay [13], 38.5 µM (inactive). For the same compound, the GI50 in assay [14] was 33.7 µM (inactive); in assay [15], 94.8 µM (inactive); in assay [20] it was 42.8 µM (inactive); in [19], 45.4 µM (inactive).
On to `CC(=O)OCC(OC(C)=O)C(OC(C)=O)C(OC(C)=O)C(C=NN(C(C)=O)S(=O)(=O)c1ccc(/C=C2\NC(=O)NC2=O)cc1)OC(C)=O` (configuration not stated), for which the GI50 in assay [1] is > 100 µM (inactive); in assay [2] it was > 100 µM (inactive); in assay [3], > 100 µM (inactive); in [4], > 100 µM; in assay [6] it was > 100 µM (inactive); in assay [7], > 100 µM (inactive). Further, the GI50 in assay [8], in assay [9], in [10], in [11], in [12] and in assay [13] was > 100 µM (inactive) each time. Besides, the GI50 in assay [14], in assay [15], in [16], in assay [17], in assay [18] and in assay [19] was > 100 µM (inactive) in each case.
In the case of `COc1ccc(/C=C2\CCC(C)c3c2nc(N)c(C#N)c3-c2ccc(OC)c(OC)c2)cc1OC` (configuration not stated), the GI50 in [1] was 8.89 µM (inactive); in assay [2], 1.36 µM (inactive); in assay [4], 5.71 µM; in assay [5], 5.08 µM (inactive); in [6] it was 2.05 µM (inactive); in assay [7], 66.4 µM (inactive). Further, the GI50 in assay [9] was 36.9 µM (inactive); in assay [10] it was 2.92 µM (inactive); in assay [11], 4.01 µM (inactive); in assay [12], 52.7 µM (inactive); in assay [13], 6 µM (inactive); in assay [14], 4.84 µM (inactive). In addition, the GI50 in assay [15] is 18.5 µM (inactive); in [17], 1.13 µM (inactive); in [18], 9.44 µM (inactive); in assay [19] it was 88.1 µM (inactive).
As for `CCOC(=O)c1c[nH]c2c(Sc3ccccc3)nccc2c1=O`, the GI50 in [1] is > 100 µM (inactive); in assay [2] it was > 100 µM (inactive); in assay [4], > 100 µM; in [5], 27.5 µM (inactive); in [6], > 100 µM (inactive); in assay [7], 31 µM (inactive). In addition, the GI50 in assay [8] is > 100 µM (inactive); in [9], > 100 µM (inactive); in assay [10], > 100 µM (inactive); in assay [12], > 100 µM (inactive); in assay [13] it was > 100 µM (inactive); in assay [14], 92.7 µM (inactive). The GI50 in assay [15] is > 100 µM (inactive); in assay [16], 71.1 µM (inactive); in [17], 18.3 µM (inactive); in [18], 44.4 µM (inactive); in [19] it was 36.7 µM (inactive).
On to `Cc1ccc2c(c1)-c1nc(N)c(C#N)c(-c3ccccc3)c1CCS2(=O)=O`, for which the GI50 is 19 µM (inactive) in [1]; > 100 µM (inactive) in [3]; 44.1 µM in assay [4]; 30.5 µM (inactive) in assay [6]; > 100 µM (inactive) in assay [7]; 16.7 µM (inactive) in assay [8]. Further, the GI50 in assay [9] is 55 µM (inactive); in assay [10], 49.2 µM (inactive); in assay [12] it was 46.5 µM (inactive); in assay [14], > 100 µM (inactive); in [16] it was 24.4 µM (inactive); in assay [17], > 100 µM (inactive). Further, the GI50 in assay [18] was 32.5 µM (inactive); in assay [19] it was 49.7 µM (inactive).
`COc1ccc(/N=N/C(=O)NC(CC(C)C)C(=O)NC(CC(C)C)C(=O)O)cc1` (configuration not stated): the GI50 in assay [1] is > 100 µM (inactive); in [2], > 100 µM (inactive); in assay [3] it was 30.9 µM (inactive); in [4], 19.5 µM; in assay [5], 17.5 µM (inactive); in [6] it was > 100 µM (inactive). The GI50 is > 100 µM (inactive) in assay [7]; > 100 µM (inactive) in [8]; 4.02 µM (inactive) in [9]; 18.7 µM (inactive) in assay [10]; > 100 µM (inactive) in assay [11]; 16.9 µM (inactive) in [12]. The GI50 was 34.8 µM (inactive) in assay [13]; 18.1 µM (inactive) in [14]; > 100 µM (inactive) in assay [16]; 26.9 µM (inactive) in assay [17]; > 100 µM (inactive) in [18]; 16.6 µM (inactive) in [19].
Consider `CC(C)=C[C@H]1CCC2(OCCO2)[C@]1(C)COCc1ccccc1`, for which the GI50 was 31 µM (inactive) in assay [1]; 33 µM (inactive) in [2]; 16.4 µM (inactive) in assay [3]; 39.5 µM in assay [4]; 17.2 µM (inactive) in [7]; 33.8 µM (inactive) in [8]. Further, the GI50 in assay [9] is 18.4 µM (inactive); in assay [10], 39.9 µM (inactive); in assay [11] it was 5.98 µM (inactive); in [12], 48.9 µM (inactive); in [13] it was 40 µM (inactive); in [14] it was 16.3 µM (inactive). The values for the GI50 in assay [15], in [16] and in assay [17] were 32.4 µM (inactive), 45.4 µM (inactive) and 35.2 µM (inactive), respectively.
Turning to `N#Cc1c2c([nH]c(=O)c1C#N)CCCC2`, the GI50 in [1] is > 100 µM (inactive); in assay [2] it was > 100 µM (inactive); in assay [3], > 100 µM (inactive); in assay [4] it was > 100 µM; in [5] it was > 100 µM (inactive); in assay [7] it was > 100 µM (inactive). The GI50 in assay [9], in [10], in [11], in assay [12], in [13] and in assay [14] was > 100 µM (inactive) in each case. In addition, the GI50 in assay [15] was > 100 µM (inactive); in assay [16] it was 82.8 µM (inactive); in [17], > 100 µM (inactive); in assay [18], > 100 µM (inactive); in assay [19], > 100 µM (inactive).
Turning to `CC12CCC(=O)N1c1cncnc1N2` (configuration not stated), the GI50 in assay [1] was > 10 µM (inactive); in assay [2], > 10 µM (inactive); in assay [3], > 10 µM (inactive); in [4], > 10 µM; in assay [5], 0.0374 µM (active); in assay [7], > 10 µM (inactive). The GI50 in assay [8], in assay [9], in [10], in assay [12], in assay [13] and in [15] was > 10 µM (inactive) throughout. The GI50 in assay [16], in assay [20], in assay [18] and in [19] was > 10 µM (inactive) each time.
For the compound `Cc1cccc2oc3c(CC(=O)O)cccc3c(=O)c12`, the GI50 in assay [1] was > 100 µM (inactive); in assay [2] it was > 100 µM (inactive); in [3], 20.5 µM (inactive); in assay [4] it was > 100 µM; in [5], > 100 µM (inactive); in assay [6], > 100 µM (inactive). The GI50 in assay [7], in assay [8], in assay [10], in [12], in [13] and in [14] was > 100 µM (inactive) in each case. The GI50 in assay [20] and in [18] was > 100 µM (inactive) throughout.
With `O=C(CC(=O)N1N=C(N2c3ccccc3Sc3ccccc32)CC1c1ccccc1)Nc1ccccc1Cl` (configuration not stated), the GI50 is > 100 µM (inactive) in [1]; > 100 µM (inactive) in assay [2]; > 100 µM (inactive) in [3]; > 100 µM in [4]; > 100 µM (inactive) in assay [5]; > 100 µM (inactive) in [6]. Besides, the GI50 in [8], in assay [9], in assay [10], in [11], in [12] and in assay [13] was > 100 µM (inactive) in each case. In addition, the GI50 in [14], in assay [16], in assay [17], in [18] and in assay [19] was > 100 µM (inactive) in each case.
